Source: ChEMBL document CHEMBL1201862, “PubChem BioAssay data set” (2004)
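Where inhibition never reached the appropriate level, the endpoint shown equals the highest concentration tested. Otherwise, values were interpolated linearly from a five-concentration, 48-hour dose response in 96-well plates. At the GI50, growth is halved.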 Calls of active or inactive are those of the source. Cut-off read from the data, not from the text of the source: active = GI50 up to about 1.1 µM and inactive = higher.

Key:
Assay in all cases: growth of human tumour cells (NCI), 48 h
786-0 = test system: 786-0
ACHN = test system: ACHN
CAKI-1 = test system: CAKI-1
HCC 2998 = test system: HCC 2998
HOP-62 = test system: HOP-62
HOP-92 = test system: HOP-92
IGROV-1 = test system: IGROV-1
MDA-N = test system: MDA-N
MOLT-4 = test system: MOLT-4
RPMI-8226 = test system: RPMI-8226
RXF 393 = test system: RXF 393
SF-268 = test system: SF-268
SK-MEL-28 = test system: SK-MEL-28
SN12C = test system: SN12C
SW-620 = test system: SW-620
TK-10 = test system: TK-10
UACC-257 = test system: UACC-257
UACC-62 = test system: UACC-62
SF-539 = test system: SF-539

Measured: GI50

O=C(O)CCC(=O)Nc1ccc2ccccc2c1
inactive: 786-0 > 100 µM | ACHN > 100 µM | CAKI-1 > 100 µM | HCC 2998 > 100 µM | HOP-62 > 100 µM | HOP-92 > 100 µM | IGROV-1 > 100 µM | MDA-N > 100 µM | MOLT-4 > 100 µM | RPMI-8226 > 100 µM | RXF 393 > 100 µM | SF-268 > 100 µM | SK-MEL-28 > 100 µM | SN12C > 100 µM | SW-620 > 100 µM | TK-10 > 100 µM | UACC-257 > 100 µM | UACC-62 > 100 µM

Cc1c2c(OCC3CCCCO3)nn(C)c(=O)c2c(C)n1-c1ccccc1 (centres undefined)
inactive: 786-0 17.2 µM | ACHN 16.5 µM | CAKI-1 21.5 µM | HCC 2998 15.3 µM | HOP-62 19.2 µM | HOP-92 18 µM | IGROV-1 18.4 µM | MDA-N 19.5 µM | MOLT-4 29 µM | RPMI-8226 31.3 µM | RXF 393 16 µM | SF-268 16.1 µM | SF-539 20 µM | SN12C 19.4 µM | TK-10 20.6 µM | UACC-257 18.6 µM | UACC-62 16.4 µM

COc1cc(OC)c(/C=C/c2cnc3ccccc3n2)c(OC)c1
inactive: 786-0 > 10 µM | ACHN > 10 µM | CAKI-1 > 10 µM | HCC 2998 > 10 µM | HOP-62 > 10 µM | HOP-92 > 10 µM | IGROV-1 > 10 µM | MDA-N > 10 µM | RPMI-8226 > 10 µM | RXF 393 > 10 µM | SF-268 > 10 µM | SF-539 > 10 µM | SK-MEL-28 > 10 µM | SN12C > 10 µM | SW-620 > 10 µM | TK-10 > 10 µM | UACC-257 > 10 µM | UACC-62 > 10 µM

COC(=O)[C@H](Cc1c[nH]c2ccccc12)NP(=O)(O)OC[C@H]1O[C@@H](n2cc(C)c(=O)[nH]c2=O)C[C@@H]1N=[N+]=[N-]
inactive: 786-0 > 100 µM | CAKI-1 > 100 µM | HCC 2998 > 100 µM | HOP-62 > 100 µM | HOP-92 > 100 µM | IGROV-1 > 100 µM | MDA-N > 100 µM | MOLT-4 > 100 µM | RPMI-8226 > 100 µM | RXF 393 > 100 µM | SF-268 > 100 µM | SN12C > 100 µM | SW-620 > 100 µM | TK-10 > 100 µM | UACC-257 > 100 µM | UACC-62 > 100 µM
